How the values were obtained:
DSS induced colitis = test: Dextran Sodium Sulfate (DSS) induced colitis; type: in vivo; conditions: oral DSS in mice
Source text: Inflammation was induced in mice (animal) using oral administration of DSS.

[1] = system: Adjuvant Arthritis (CFA induced); test: Adjuvant induced arthritis in rats; type: in vivo
Protocol: Arthritis or inflammation in the joint was induced by injection of Complete Freund's Adjuvant (CFA) into the left hind footpad of rats (animals). The animals were divided into three groups namely, Control, Ibuprofen and Formulation B. The role of Formulation B on specific cytokine blockade in the etiology of cachexia caused by Adjuvant Arthritis (AA) was evaluated. The parameter considered for the evaluation included paw thickness as a percent of paw thickness at Day 0 and percent body weight gain in animals. FIG. 4 illustrates paw thickness in animals as a percent of the paw thickness at Day 0 during the Adjuvant Induced Arthritis study in animals. Whereas, FIG. 5 illustrates percent body weight gain in animals during the Adjuvant Induced Arthritis study in animals.

Compound: O=C(O)c1cc(/N=N/c2ccc(S(=O)(=O)Nc3ccccn3)cc2)ccc1O [Sulfasalazine]
- reduction in food intake (DSS induced colitis): recovered
- body weight loss (DSS induced colitis; FIG. 13): improved the body weight loss

Compound: CC(C)Cc1ccc(C(C)C(=O)O)cc1 (stereo not shown) [Ibuprofen]
- effect on cytokine inhibition ([1]; CFA into left hind footpad): did not show any effect
- percent body weight gain (AA-associated weight loss) ([1]; compared to control animals, FIG. 5): lost body weight significantly
